These results are taken from patent US10525044B2, “Treatment for chemotherapy-induced peripheral neuropathy” (priority 2013, dated 2020).

For series [1], the system named is mixed cortical and striatal neurons. In words: LDH assay (cell membrane integrity) in neuronal cell culture. The series is classed as cell-based. Particulars: MTX 100 μM, 5-FU 25 μM, CDDP 3.5 μM; for LDH increase in culture supernatant (cell membrane leakage): neurons in 25% AO; for LDH increase in culture supernatant (cell membrane leakage) / morphological changes, LDH release, or MTS reduction: 3 days; for morphological changes, LDH release, or MTS reduction: neurons in 100% or 50% AOs, data not shown; for increase in LDH reading: neurons, FIG. 2(b). How it is done: (§1) Neuronal Cell Culture. Mixed cortical and striatal neurons fromembryonic day 17 male Sprague-Dawley rats (tissue obtained from NIH) were seeded into poly-D-lysine coated 96-well plates at density of 50,000 cells/well and initially cultured at 37° C., 5% CO2, in neurobasal medium (NB) with B27 supplement (Invitrogen) containing full strength of AOs to obtain highly enriched (95%) neurons. Since AOs, including vitamin E, vitamin E acetate, superoxide dismutase (SOD), catalase (CAT), and GSH, are additives to culture medium, reduction of AO concentration in culture medium provides an approach to determine the level of OS involvement in a neurotoxic process. In our study, the culture medium was replaced at a 50% ratio with NB plus B27 minus AOs twice at days 7 and 9 to set AO concentrations as 50% and 25%, respectively. At 16 days in vitro (d.i.v.), a fraction of the culture medium was harvested for lactate dehydrogenase (LDH) assay, and then AO concentration was reduced to 12.5% and cultured for a further 5 hours prior to ending the experiment.
(§2) Cell Insults and Treatments. Determination of concentration for each anticancer drug in our experiments was based on its reported concentration in human cerebral spinal fluid (CSF) in chemotherapy, literature report of its neurotoxicity in culture, and our preliminary in vitro experimental data. At 13 d.i.v., the neuronal cell cultures were insulted with 100 μM of MTX (M9929, Sigma), 25 μM of 5-FU (F6627, Sigma), or 3.5 μM of CDDP (sc-200896, Santa Cruz) for 3 days in absence or presence of PAN 811.Cl.H2O. For ROS examination, the neurons were insulted with both 100 μM of MTX and 25 μM of 5-FU by 15 d.i.v. PAN-811.Cl.H2O was added to cultures to final concentrations of 1.25, 2.5, 5, and 10 μM at the same time as addition of the anticancer drugs. For cancer cell lines, the cells were insulted by the second day of cell seeding with the same concentration of MTX, 5-FU, or CDDP as used in neuronal culture in the absence or presence of 10 μM PAN-811.Cl.H2O for another 3 days.
(§3) Quantitative Assays and Morphological Assessment. Cell membrane integrity and mitochondrial function of either neurons or cancer cells were measured with LDH and 3-(4,5-dimethylthiazol-2-yl)-5-(3-carboxymethoxyphenyl)-2-(4-sulfophenyl)-2H-tetrazolium [MTS] analyses, respectively. The latter has been used to quantify cell survival. For the LDH assay, a mixture of a 35 μL aliquot of culture supernatant and 17.5 μL of Mixed Substrate, Enzyme and Dye Solutions (Sigma) was incubated at room temperature (RT) for 30 minutes. For the MTS assay, 10 μL of MTS reagent (Promega) was added to a culture well containing neurons in 50 μL of medium. The preparations were incubated at 37° C. for 2 hours. The preparations for both assays were then spectrophotometrically measured at 490 nm using a 96-well plate reader (Mode 550, Bio-Rad). Neuronal cell death was morphologically determined based on the integrity of the cell soma and continuity of neuronal processes. The change in number of cancer cells was judged directly by cell density. Cells were photographed under an inverted phase contrast microscope (IX 70, Olympus) using 10× or 20× objective.
(§4) Data Analysis. Data were generated from 4-6 replicate wells, expressed as mean±standard deviation (SD), and statistically evaluated at a significance level of 1% with one factor ANOVA or Student's t-test by using software VASSARSTATS (http://vassarstats.net/) followed by the Tukey HSD test. Figure symbols are as follows: #, P<0.05, and ##, P<0.01, compared with control; *, P<0.05, and **, P<0.01, compared with the insulted group; §§, P<0.01, compared with PAN-811 treated group by Student's t-test.
On the technique in general: LDH in the medium is a marker of cell lysis.

The test system is the same in series [2]. In words: MTS assay (cell viability) in neuronal cell culture. The series is classed as cell-based. The note with it: MTX 100 μM, 5-FU 25 μM, CDDP 3.5 μM; for reduction of MTS reading / effect on MTS reading (in words): neurons in 12.5% AO; for effect on MTS reading (in words): FIG. 2(c); for change in MTS level: neurons in 25% AO, 3 days, data not shown. How it is done:
as §1, §2, §3, §4

Series [3] deals with mouse liver cancer cell line BNLT3. In words: MTS assay in BNLT3 cancer cells. The series is classed as cell-based. Particulars: each agent alone, 3 days: MTX 100 μM, 5-FU 25 μM, CDDP 3.5 μM, PAN-811 10 μM. How it is done:
(§5) Cancer Cell Culture. The mouse liver cancer cell line BNLT3 (gift of Dr. Jack Wands, Brown University) and the human lung cancer cell line H460 (ATCC) were seeded into 96-well plates at a density of 4,000 cells/well and cultured at 37° C., 5% CO2, in DMEM (11965, Gibco) supplemented with 10% fetal bovine serum, 20 mM HEPES, 1 mM sodium pyruvate, and […] gentamycin (all reagents came from Gibco).
as §2, §3, §4
(Formazan colour is commonly taken as a measure of viable cells.)

In series [4] the test system is human lung cancer cell line H460. Put plainly: MTS assay in H460 cancer cells. The series is classed as cell-based. The note with it: each agent alone, 3 days: MTX 100 μM, 5-FU 25 μM, CDDP 3.5 μM, PAN-811 10 μM. How it is done: as §5, §2, §3, §4
Series [5] has the same test system. Put plainly: LDH assay (membrane integrity) in H460 cancer cells. Format: cell-based. Particulars: each agent alone, 3 days: MTX 100 μM, 5-FU 25 μM, CDDP 3.5 μM, PAN-811 10 μM. How it is done: as §5
as §2, with “[…] […]” for “At 13 d.i.v., the neuronal cell cultures were insulted with 100 μM of MTX (M9929, Sigma), 25 μM of 5-FU (F6627, Sigma), or 3.5 μM of CDDP (sc-200896, Santa Cruz) for 3 days in absence or presence of PAN 811.Cl.H2O. For ROS examination, the neurons were insulted with both 100 μM of MTX and 25 μM of 5-FU by 15 d.i.v.”
as §3, §4

The test system of series [6] is mixed cortical and striatal neurons. Put plainly: Morphological assessment of neuronal cell death. Format: cell-based, Sprague-Dawley rats. Particulars: MTX 100 μM, 5-FU 25 μM, CDDP 3.5 μM; for visible cell damage: neurons in 25% AO, 3 days; for neuronal cell death / loss of neurons (morphology): AO reduced to 12.5% for 5 hours at 16 d.i.v. The procedure: as §1, §2, §3

Series [7] relates to mouse liver cancer cell line BNLT3. In words: Cell density of BNLT3 cells (phase contrast). The series is classed as cell-based. Particulars: each agent alone, 3 days: MTX 100 μM, 5-FU 25 μM, CDDP 3.5 μM, PAN-811 10 μM. How it is done:
as §5, §2, §3

Series [8] relates to human lung cancer cell line H460. In words: Cell density of H460 cells (phase contrast). Format: cell-based. The note with it: each agent alone, 3 days: MTX 100 μM, 5-FU 25 μM, CDDP 3.5 μM, PAN-811 10 μM. How it is done:
as §5, §2, §3

Series [9] concerns TRPA1-dependent hypersensitivity. The note with it: short-term systemic treatment before the cytotoxic drug (bortezomib or oxaliplatin); cited from earlier work.
Series [10] concerns oxaliplatin-induced behavioral alterations. The note with it: in vivo; cited from earlier work.

Entries after “also recorded” stand apart in the source; their conditions may differ.

For the compound `O=c1[nH]cc(F)c(=O)[nH]1` [5-FU, fluorouracil], in series [1], the “LDH increase in culture supernatant (cell membrane leakage)” value (“LDH increase in culture supernatant” for short) is given as “significant LDH increase”; the “morphological changes, LDH release, or MTS reduction” value was “neither MTX at 100 μM, 5-FU at 25 μM, nor CDDP at 3.5 μM caused morphological changes, LDH release, or MTS reduction”; the “increase in LDH reading” value is on record as “significant increases in LDH reading”. In [2], the “reduction of MTS reading” value is reported as 27%, the “effect on MTS reading (in words)” value was “significant reduction in MTS readings” and the “change in MTS level” value was “no change in MTS level was detectable”. Besides, the “reduction of MTS reading” value in series [3] amounted to 84%. For the same compound, the “reduction of MTS reading” value in [4] is listed as 57%. Besides, the “increase in LDH reading in culture supernatant” value in series [5] stood at 124%. Besides, in [6], the visible cell damage result was “no cell damage was visible” and the “neuronal cell death / loss of neurons (morphology)” value is given as “extensive neuronal cell death; also recorded: robust loss of neurons”. Moreover, the “cell density / cancer cell number” value in [7] is recorded as “significantly reduced the cell density”. For the same compound, in series [8], the cell density result is recorded as “robustly decreased the cell density”.
Take `[NH2][Pt]([NH2])([Cl])[Cl]` [CDDP, cisplatin]: in [1], the “LDH increase in culture supernatant” value is “significant LDH increase”; the “morphological changes, LDH release, or MTS reduction” value is on record as “neither MTX at 100 μM, 5-FU at 25 μM, nor CDDP at 3.5 μM caused morphological changes, LDH release, or MTS reduction”; the “increase in LDH reading” value is “significant increases in LDH reading”. For the same compound, in series [2], the “reduction of MTS reading” value was 66%, the “effect on MTS reading (in words)” value was “significant reduction in MTS readings” and the “change in MTS level” value is “no change in MTS level was detectable”. In addition, in series [3], the “reduction of MTS reading” value is 44%. The “reduction of MTS reading” value in series [4] came out at 22%. In addition, the “increase in LDH reading in culture supernatant” value in series [5] is 71%. Besides, in series [6], the visible cell damage result is recorded as “no cell damage was visible” and the “neuronal cell death / loss of neurons (morphology)” value is given as “extensive neuronal cell death; also recorded: robust loss of neurons”. In [7], the “cell density / cancer cell number” value was “caused a decrease in the cell density”. Moreover, the cell density entry in [8] is listed as “greatly decreased the cell density”.
In the case of `CC(C)c1ccc(NC(=O)Cn2cnc3c2c(=O)n(C)c(=O)n3C)cc1` [HC-030031], in series [9], the prevention of hypersensitivity result is “completely prevent hypersensitivity”.
In the case of `CN(Cc1cnc2nc(N)nc(N)c2n1)c1ccc(C(=O)N[C@@H](CCC(=O)O)C(=O)O)cc1` [MTX, methotrexate], in series [1], the “LDH increase in culture supernatant” value was “significant LDH increase”; the “morphological changes, LDH release, or MTS reduction” value is recorded as “neither MTX at 100 μM, 5-FU at 25 μM, nor CDDP at 3.5 μM caused morphological changes, LDH release, or MTS reduction”; the “increase in LDH reading” value is reported as “significant increases in LDH reading”. In addition, in series [2], the “effect on MTS reading (in words)” value was “did not elicit significant MTS reduction; also recorded: did not significantly affect the MTS reading” and the “change in MTS level” value is given as “no change in MTS level was detectable”. Moreover, the “reduction of MTS reading” value in [3] came out at 85%. In addition, in [4], the “reduction of MTS reading” value is given as 67%. For the same compound, in series [5], the “increase in LDH reading in culture supernatant” value is reported as 95%. In series [6], the visible cell damage result is “no cell damage was visible” and the “neuronal cell death / loss of neurons (morphology)” value is given as “did not result in significant loss of cell number”. In series [7], the “cell density / cancer cell number” value is reported as “severely reduced the cancer cell number”. Further, the cell density result in [8] was “robustly decreased the cell density”.
Regarding `O=C(O)CCCCC1CCSS1` (stereo not drawn) [α-lipoic acid], the prevention of hypersensitivity result in [9] is “completely prevent hypersensitivity”.
As for `Cc1c(C)c2c(c(C)c1O)CC[C@@](C)(CCC[C@H](C)CCC[C@H](C)CCCC(C)C)O2` [α-tocopherol], the “antineuropathic effect on oxaliplatin-induced behavioral alterations” value in [10] is given as “about 50%”.
